This note sets out measurements from article PMC5218480 (PLoS ONE, 2017).

Structures are written as SMILES.

The experiment deals with MV-4-11 cells. The experiment in a line: Gene expression microarray analysis (Affymetrix PrimeView) and GSEA. Format: cell-based, human. The settings on record: ProbeSet 11725141_a_at; LIST B. The arrangement: RFU PODN (11730768_x_at) / Fold change /veh PODN (11730768_x_at) / RFU LINC00158 (11744669_a_at) / Fold change /veh LINC00158 (11744669_a_at) / RFU DUSP10 (11751237_a_at) / Fold change /veh DUSP10 (11751237_a_at) / RFU ID3 (11757404_x_at) / Fold change /veh ID3 (11757404_x_at) / RFU PLEKHG5 (11737974_s_at) / Fold change /veh PLEKHG5 (11737974_s_at) / RFU LRRC4B (11730491_at) / Fold change /veh LRRC4B (11730491_at) / RFU GIMAP4 (11747438_a_at) / Fold change /veh GIMAP4 (11747438_a_at) / RFU KRT8 (11758183_x_at) / Fold change /veh KRT8 (11758183_x_at) / RFU CNN1 (11734310_a_at) / Fold change /veh CNN1 (11734310_a_at) / RFU VPS37D (11726825_at) / Fold change /veh VPS37D (11726825_at) / RFU C10orf10 (11716522_x_at) / Fold change /veh C10orf10 (11716522_x_at) / RFU KIR2DL2 /// KIR2DL4 /// KIR2DL5A /// KIR2DL5B /// KIR2DS1 /// KIR2DS2 /// KIR2DS3 /// KIR2DS4 /// KIR3DL3 /// KIR3DL3 /// KIR3DS1 (11738374_at) / Fold change /veh KIR2DL2 /// KIR2DL4 /// KIR2DL5A /// KIR2DL5B /// KIR2DS1 /// KIR2DS2 /// KIR2DS3 /// KIR2DS4 /// KIR3DL3 /// KIR3DL3 /// KIR3DS1 (11738374_at) / RFU C1QL1 (11718748_at) / Fold change /veh C1QL1 (11718748_at) / RFU TMPRSS4 (11747572_a_at) / Fold change /veh TMPRSS4 (11747572_a_at) / RFU HAMP (11756126_x_at) / Fold change /veh HAMP (11756126_x_at) / RFU RNFT2 (11725882_a_at) / Fold change /veh RNFT2 (11725882_a_at) / RFU NR4A2 (11747474_a_at) / Fold change /veh NR4A2 (11747474_a_at) / RFU ABCC12 (11746883_a_at) / Fold change /veh ABCC12 (11746883_a_at) / RFU TMEM136 (11760407_x_at) / Fold change /veh TMEM136 (11760407_x_at) / RFU CLDN22 /// WWC2 (11732394_at) / Fold change /veh CLDN22 /// WWC2 (11732394_at) / RFU HLA-DPB1 (11760878_x_at) / Fold change /veh HLA-DPB1 (11760878_x_at) / RFU SPINT1 (11716480_a_at) / Fold change /veh SPINT1 (11716480_a_at) / RFU GAP43 (11754022_s_at) / Fold change /veh GAP43 (11754022_s_at) / RFU A4GNT (11735810_at) / Fold change /veh A4GNT (11735810_at) / RFU PRB3 (11715151_x_at) / Fold change /veh PRB3 (11715151_x_at) / RFU TUBB4B (11761932_at) / Fold change /veh TUBB4B (11761932_at) / RFU CAPN14 (11732068_a_at) / Fold change /veh CAPN14 (11732068_a_at) / RFU TMCC2 (11721928_a_at) / Fold change /veh TMCC2 (11721928_a_at) / RFU IRGQ (11745062_a_at) / Fold change /veh IRGQ (11745062_a_at) / RFU FAM174B (11720279_a_at) / Fold change /veh FAM174B (11720279_a_at) / RFU TMPRSS4 (11748680_a_at) / Fold change /veh TMPRSS4 (11748680_a_at) / RFU FAM212B (11763350_a_at) / Fold change /veh FAM212B (11763350_a_at) / RFU PLEKHG5 (11743358_a_at) / Fold change /veh PLEKHG5 (11743358_a_at) / RFU ZSCAN30 (11745921_a_at) / Fold change /veh ZSCAN30 (11745921_a_at) / RFU CMKLR1 (11741424_a_at) / Fold change /veh CMKLR1 (11741424_a_at) / RFU LOC101060620 /// MAPK8IP1 (11723275_at) / Fold change /veh LOC101060620 /// MAPK8IP1 (11723275_at) / RFU SPTSSB (11747773_x_at) / Fold change /veh SPTSSB (11747773_x_at) / RFU PRSS12 (11739890_at) / Fold change /veh PRSS12 (11739890_at) / RFU BIN1 (11741810_x_at) / Fold change /veh BIN1 (11741810_x_at) / RFU WNT11 (11732464_a_at) / Fold change /veh WNT11 (11732464_a_at) / RFU C10orf10 (11716521_a_at) / Fold change /veh C10orf10 (11716521_a_at) / RFU C5orf56 (11738089_at) / Fold change /veh C5orf56 (11738089_at) / RFU CYB561 (11721691_x_at) / Fold change /veh CYB561 (11721691_x_at) / RFU ANKRD19P (11752326_a_at) / Fold change /veh ANKRD19P (11752326_a_at) / RFU OR2T12 /// OR2T33 /// OR2T8 (11738714_s_at) / Fold change /veh OR2T12 /// OR2T33 /// OR2T8 (11738714_s_at) / RFU VCAN (11748164_a_at) / Fold change /veh VCAN (11748164_a_at) / RFU JSRP1 (11732532_at) / Fold change /veh JSRP1 (11732532_at) / RFU KRTAP10-11 (11738290_x_at) / Fold change /veh KRTAP10-11 (11738290_x_at) / RFU MYO3A (11730013_a_at) / Fold change /veh MYO3A (11730013_a_at) / RFU EBF3 (11725865_a_at) / Fold change /veh EBF3 (11725865_a_at) / RFU CAMK2N1 (11719241_x_at) / Fold change /veh CAMK2N1 (11719241_x_at) / RFU C5orf56 (11738088_a_at) / Fold change /veh C5orf56 (11738088_a_at) / RFU OLFML3 (11715873_a_at) / Fold change /veh OLFML3 (11715873_a_at) / RFU LOC100653217 /// NTM (11731650_a_at) / Fold change /veh LOC100653217 /// NTM (11731650_a_at) / RFU MAPK11 (11762145_a_at) / Fold change /veh MAPK11 (11762145_a_at) / RFU FIZ1 (11724087_x_at) / Fold change /veh FIZ1 (11724087_x_at) / RFU OASL (11726364_x_at) / Fold change /veh OASL (11726364_x_at) / RFU SOX15 (11748057_x_at) / Fold change /veh SOX15 (11748057_x_at) / RFU CD79A (11719716_a_at) / Fold change /veh CD79A (11719716_a_at) / RFU HIST1H1D (11736915_at) / Fold change /veh HIST1H1D (11736915_at) / RFU CASKIN2 (11723855_a_at) / Fold change /veh CASKIN2 (11723855_a_at) / RFU LOC730098 (11760151_x_at) / Fold change /veh LOC730098 (11760151_x_at) / RFU OR4N2 (11742367_at) / Fold change /veh OR4N2 (11742367_at) / RFU PRRT2 (11749266_a_at) / Fold change /veh PRRT2 (11749266_a_at) / RFU SNX32 (11753110_a_at) / Fold change /veh SNX32 (11753110_a_at) / RFU CDHR5 (11726645_a_at) / Fold change /veh CDHR5 (11726645_a_at) / RFU RCAN1 (11760418_a_at) / Fold change /veh RCAN1 (11760418_a_at) / RFU FAM167A (11723789_a_at) / Fold change /veh FAM167A (11723789_a_at) / RFU FAM26E (11764081_at) / Fold change /veh FAM26E (11764081_at) / RFU ISYNA1 (11749810_s_at) / Fold change /veh ISYNA1 (11749810_s_at) / RFU ACY1 (11761880_at) / Fold change /veh ACY1 (11761880_at) / RFU 11764098_at / Fold change /veh 11764098_at / RFU SAMD14 (11745864_x_at) / Fold change /veh SAMD14 (11745864_x_at) / RFU NPB (11741838_a_at) / Fold change /veh NPB (11741838_a_at) / RFU TMPRSS6 (11731388_a_at) / Fold change /veh TMPRSS6 (11731388_a_at) / RFU KRTAP10-2 (11738614_at) / Fold change /veh KRTAP10-2 (11738614_at) / RFU ARHGAP8 /// PRR5-ARHGAP8 (11727945_x_at) / Fold change /veh ARHGAP8 /// PRR5-ARHGAP8 (11727945_x_at) / RFU KRTAP5-7 /// NADSYN1 (11734609_at) / Fold change /veh KRTAP5-7 /// NADSYN1 (11734609_at) / RFU RASL12 (11751679_a_at) / Fold change /veh RASL12 (11751679_a_at) / RFU CDKN2B (11736163_a_at) / Fold change /veh CDKN2B (11736163_a_at) / RFU PRF1 (11729649_at) / Fold change /veh PRF1 (11729649_at) / RFU, ZNF638 /// ZNF638-IT1 / Fold change vs veh, ZNF638 /// ZNF638-IT1 / RFU, PANK3 / Fold change vs veh, PANK3 / RFU, SH3YL1 / Fold change vs veh, SH3YL1 / RFU, ZEB2 / Fold change vs veh, ZEB2 / RFU, NRIP1 / Fold change vs veh, NRIP1 / RFU, PTTG1IP / Fold change vs veh, PTTG1IP / RFU, CAPN2 / Fold change vs veh, CAPN2 / RFU, MED14 / Fold change vs veh, MED14 / RFU, SNORA58 / Fold change vs veh, SNORA58 / RFU, C1orf63 / Fold change vs veh, C1orf63 / RFU, LRRFIP1 / Fold change vs veh, LRRFIP1 / RFU, NDUFAF7 / Fold change vs veh, NDUFAF7 / RFU, SLC12A2 / Fold change vs veh, SLC12A2 / RFU, IBTK / Fold change vs veh, IBTK / RFU, ESF1 / Fold change vs veh, ESF1 / Fold change vs veh, TMEM50B / RFU, TAOK1 / Fold change vs veh, TAOK1 / RFU, ACBD3 / Fold change vs veh, ACBD3 / RFU, TMA16 / Fold change vs veh, TMA16 / RFU, RWDD3 / Fold change vs veh, RWDD3 / RFU, BCAT1 / Fold change vs veh, BCAT1 / RFU, EDEM3 / Fold change vs veh, EDEM3 / RFU, TMEM33 / Fold change vs veh, TMEM33 / RFU, WDR75 / Fold change vs veh, WDR75 / RFU, AHCTF1 / Fold change vs veh, AHCTF1 / RFU, TFRC / Fold change vs veh, TFRC / RFU, ZDHHC17 / Fold change vs veh, ZDHHC17 / RFU, NOM1 / Fold change vs veh, NOM1 / RFU, ARL8B / Fold change vs veh, ARL8B / RFU, ZBTB11 / Fold change vs veh, ZBTB11 / RFU, TAMM41 / Fold change vs veh, TAMM41 / RFU, KIAA1704 /// LOC100996395 / Fold change vs veh, KIAA1704 /// LOC100996395 / RFU, ING1 / Fold change vs veh, ING1 / RFU, TRMT61B / Fold change vs veh, TRMT61B / RFU, FUBP3 / Fold change vs veh, FUBP3 / RFU, TP53 / Fold change vs veh, TP53 / RFU, TNKS2 / Fold change vs veh, TNKS2 / RFU, ZFP14 / Fold change vs veh, ZFP14 / RFU, ACTR2 / Fold change vs veh, ACTR2 / RFU, PPP3R1 / Fold change vs veh, PPP3R1 / RFU, PIK3R1 / Fold change vs veh, PIK3R1 / RFU, HNRNPA1 / Fold change vs veh, HNRNPA1 / RFU, RNF170 / Fold change vs veh, RNF170 / RFU, ZNF28 / Fold change vs veh, ZNF28 / RFU, RNGTT / Fold change vs veh, RNGTT / RFU, OGT / Fold change vs veh, OGT / RFU, BRD1 / Fold change vs veh, BRD1 / RFU, MARS / Fold change vs veh, MARS / RFU, ZNF655 / Fold change vs veh, ZNF655 / RFU, FAHD1 / Fold change vs veh, FAHD1 / RFU, BDP1 / Fold change vs veh, BDP1 / RFU, LRRCC1 / Fold change vs veh, LRRCC1 / RFU, ARID1A / Fold change vs veh, ARID1A / RFU, ZNF146 / Fold change vs veh, ZNF146 / RFU, ZNF330 / Fold change vs veh, ZNF330 / RFU, GPN3 / Fold change vs veh, GPN3 / RFU, C9orf123 / Fold change vs veh, C9orf123 / RFU, N4BP2L2 / Fold change vs veh, N4BP2L2 / RFU, ARFIP1 / Fold change vs veh, ARFIP1 / RFU, FAM179B / Fold change vs veh, FAM179B / RFU, BCL10 / Fold change vs veh, BCL10 / RFU, UHRF1BP1L / Fold change vs veh, UHRF1BP1L / RFU, BET1 / Fold change vs veh, BET1 / RFU, CNOT2 / Fold change vs veh, CNOT2 / RFU, ZNF268 / Fold change vs veh, ZNF268 / Fold change vs veh, ZNF507 / RFU, DGCR2 / Fold change vs veh, DGCR2 / RFU, WDSUB1 / Fold change vs veh, WDSUB1 / Fold change vs veh, HSP90B1 /// MIR3652 / RFU, ADSS / Fold change vs veh, ADSS / RFU, GK / Fold change vs veh, GK / RFU, ZNF148 / Fold change vs veh, ZNF148 / RFU, TAF9 / Fold change vs veh, TAF9 / RFU, SLC1A5 / Fold change vs veh, SLC1A5 / RFU, SLMO2 / Fold change vs veh, SLMO2 / RFU, ABCC4 / Fold change vs veh, ABCC4 / RFU, LOC101060439 /// RAP1B / Fold change vs veh, LOC101060439 /// RAP1B / RFU, RFX7 / Fold change vs veh, RFX7 / RFU, GTPBP10 / Fold change vs veh, GTPBP10 / RFU, CNEP1R1 / Fold change vs veh, CNEP1R1 / RFU, BIVM-ERCC5 /// ERCC5 / Fold change vs veh, BIVM-ERCC5 /// ERCC5 / RFU, ILF3 / Fold change vs veh, ILF3 / RFU 11762660_at / Fold change /veh 11762660_at / RFU VCAN (11757783_s_at) / Fold change /veh VCAN (11757783_s_at) / RFU DDX43 (11728927_at) / Fold change /veh DDX43 (11728927_at) / RFU KRT8 (11758188_x_at) / Fold change /veh KRT8 (11758188_x_at) / RFU NKD1 (11759106_at) / Fold change /veh NKD1 (11759106_at) / RFU SRD5A1 (11742802_a_at) / Fold change /veh SRD5A1 (11742802_a_at) / RFU TPSAB1 /// TPSB2 (11721975_s_at) / Fold change /veh TPSAB1 /// TPSB2 (11721975_s_at) / RFU GSTM3 (11746129_a_at) / Fold change /veh GSTM3 (11746129_a_at) / RFU IL23R (11737362_x_at) / Fold change /veh IL23R (11737362_x_at) / RFU TMEM51 (11727254_a_at) / Fold change /veh TMEM51 (11727254_a_at) / RFU PIWIL2 (11732686_x_at) / Fold change /veh PIWIL2 (11732686_x_at) / RFU ORM1 (11744905_x_at) / Fold change /veh ORM1 (11744905_x_at) / RFU CCDC152 (11743942_at) / Fold change /veh CCDC152 (11743942_at) / RFU ECM1 (11717891_a_at) / Fold change /veh ECM1 (11717891_a_at) / RFU IL23R (11748794_a_at) / Fold change /veh IL23R (11748794_a_at) / RFU TNFAIP8L3 (11732012_x_at) / Fold change /veh TNFAIP8L3 (11732012_x_at) / RFU MBOAT4 (11741988_at) / Fold change /veh MBOAT4 (11741988_at) / RFU 11764193_at / Fold change /veh 11764193_at / RFU TMEM53 (11763286_at) / Fold change /veh TMEM53 (11763286_at) / RFU MAGEB2 (11727129_at) / Fold change /veh MAGEB2 (11727129_at) / RFU TMEM200A (11744735_a_at) / Fold change /veh TMEM200A (11744735_a_at) / RFU CCDC152 (11751479_a_at) / Fold change /veh CCDC152 (11751479_a_at) / RFU FAM211A (11726209_a_at) / Fold change /veh FAM211A (11726209_a_at) / RFU RGS16 (11746705_a_at) / Fold change /veh RGS16 (11746705_a_at) / RFU VCAN (11755009_s_at) / Fold change /veh VCAN (11755009_s_at) / RFU RHOB (11743442_s_at) / Fold change /veh RHOB (11743442_s_at) / RFU RGS16 (11720943_a_at) / Fold change /veh RGS16 (11720943_a_at) / RFU RGS16 (11720944_at) / Fold change /veh RGS16 (11720944_at) / RFU, VPS4B / Fold change vs veh, VPS4B / RFU, CREB1 / Fold change vs veh, CREB1 / RFU, DNAJC13 / Fold change vs veh, DNAJC13 / RFU, GNAQ / Fold change vs veh, GNAQ / RFU, CDK5R1 / Fold change vs veh, CDK5R1 / RFU, ZRANB3 / Fold change vs veh, ZRANB3 / RFU, CUL4A / Fold change vs veh, CUL4A / RFU, CCNY / Fold change vs veh, CCNY / RFU, UFL1 / Fold change vs veh, UFL1 / RFU, COG3 / Fold change vs veh, COG3 / RFU, DIAPH2 / Fold change vs veh, DIAPH2 / RFU, SKA2 / Fold change vs veh, SKA2 / RFU, AFF3 / Fold change vs veh, AFF3 / RFU, LMF1 / Fold change vs veh, LMF1 / RFU, IPO11 / Fold change vs veh, IPO11 / RFU, DFFB / Fold change vs veh, DFFB / RFU, FOXP1 / Fold change vs veh, FOXP1 / RFU, CARD8 / Fold change vs veh, CARD8 / RFU, STRN3 / Fold change vs veh, STRN3 / RFU, ADK / Fold change vs veh, ADK / RFU, RASSF2 / Fold change vs veh, RASSF2 / RFU, WIPF1 / Fold change vs veh, WIPF1 / RFU, LARP1B / Fold change vs veh, LARP1B / RFU, RASA1 / Fold change vs veh, RASA1 / RFU, RB1 / Fold change vs veh, RB1 / RFU, PPFIA1 / Fold change vs veh, PPFIA1 / RFU, MAT2A / Fold change vs veh, MAT2A / RFU, CCT5 / Fold change vs veh, CCT5 / RFU, WDR92 / Fold change vs veh, WDR92 / RFU, CUX1 / Fold change vs veh, CUX1 / RFU, TTC7A / Fold change vs veh, TTC7A / RFU, TMEM135 / Fold change vs veh, TMEM135 / RFU, DEPTOR / Fold change vs veh, DEPTOR / RFU, CPM / Fold change vs veh, CPM / RFU, DNAJB6 / Fold change vs veh, DNAJB6 / RFU, CACNA2D3 / Fold change vs veh, CACNA2D3 / RFU, DTX4 / Fold change vs veh, DTX4 / RFU, TFCP2 / Fold change vs veh, TFCP2 / RFU, GMCL1 /// GMCL1P1 / Fold change vs veh, GMCL1 /// GMCL1P1 / RFU, AEBP2 / Fold change vs veh, AEBP2 / RFU, SNHG1 /// SNORD22 /// SNORD25 /// SNORD26 /// SNORD27 /// SNORD28 /// SNORD29 /// SNORD31 / Fold change vs veh, SNHG1 /// SNORD22 /// SNORD25 /// SNORD26 /// SNORD27 /// SNORD28 /// SNORD29 /// SNORD31 / Fold change (Aza/veh), C12orf56 (ProbeSet 11735607_a_at) / Fold change (ACY-1035/veh), C12orf56 (ProbeSet 11735607_a_at) / Fold change (Aza/veh), FGFR1OP (ProbeSet 11751329_s_at) / Fold change (ACY-1035/veh), FGFR1OP (ProbeSet 11751329_s_at) / Fold change (Aza/veh), VPS36 (ProbeSet 11739960_a_at) / Fold change (ACY-1035/veh), VPS36 (ProbeSet 11739960_a_at) / RFU SYPL1 (11715823_x_at) / Fold change /veh SYPL1 (11715823_x_at) / RFU IGFBP7 (11715501_s_at) / Fold change /veh IGFBP7 (11715501_s_at) / RFU REEP3 (11722064_at) / Fold change /veh REEP3 (11722064_at) / RFU IGLL1 (11728026_x_at) / Fold change /veh IGLL1 (11728026_x_at): dose or concentration left out as unconfirmed.

For `Nc1ccc(-c2cccs2)cc1NC(=O)c1ccc2c(c1)cc(C1CC1)n2CCN1CCOCC1` [ACY-1035], the “RFU, FUBP3” value was found to be 490.19 RFU.
